{"source": "paper PMC9138090", "about": "“Study on the Neuroprotective, Radical-Scavenging and MAO-B Inhibiting Properties of New Benzimidazole Arylhydrazones as Potential Multi-Target Drugs for the Treatment of Parkinson’s Disease” (Antioxidants, 2022)", "key": {"rat brain synaptosomes": {"tested_on": "rat brain synaptosomes", "assay": "6-OHDA-induced neurotoxicity, synaptosomal viability", "type": "cell-based", "conditions": "for protective effect in 6-OHDA model (in words): 10 µM, synaptosomal viability and GSH level", "method": "Synaptosomes were prepared from brains of adult male Wistar rats. The brains were homogenized in 10 volume of cold buffer 1, containing 5 mM HEPES and 0.32 M sucrose (pH = 7.4). The brain homogenate was centrifuged twice at 1000× g for 5 min at 4 °C. The supernatant was collected and centrifuged 3 times at 10,000× g for 20 min at 4 °C. The pellet was re-suspended in ice-cold buffer 1. The synaptosomes were isolated by using Percoll reagent to prepare the gradient. Synaptosomes were re-suspended and incubated in buffer 2, containing 290 mM NaCl, 0.95 mM MgCl2 × 6H2O, 10 mM KCl, 2.4 mM CaCl2 × H2O, 2.1 mM NaH2PO4, 44 mM HEPES, and 13 mM D-glucose. Incubations were performed in a 5% CO2 + 95% O2 atmosphere. The content of synaptosomal protein was determined according to the method of Lowry et al. using bovine serum albumin as a standard.\nSynaptosomal viability was measured by (3-(4,5)-dimethylthiazol-2-yl)-2,5-diphenyl tetrazolium bromide)-test, described by Mungarro-Menchaca et al. The synaptosomes were incubated with the compounds and then treated with (3-(4,5)-dimethylthiazol-2-yl)-2,5-diphenyl tetrazolium bromide) solution (0.5 mg/mL) for 1 h at 37 °C. After incubation they were centrifuged at 15,000× g for 1 min. The formed formazan crystals were dissolved in DMSO (Dimethyl sulfoxide). The extinction was measured spectrophotometrically at λ = 580 nm.\nThe metabolism and oxidation of dopamine cause reactive oxygen radicals and reactive quinones to be produced, which could lead to neurotoxicity and neurodegeneration. The synaptosomes were incubated with the compounds (10 µM) for 30 min and then 6-hydroxydopamnine (150 mmol/L) was used to induce neurotoxicity. […] After 1 h, they were centrifuged on a microcentrifuge for 1 min at 15,000 rpm. The precipitates were gently mixed with buffer B and glucose and centrifuged for a second time at 15,000 rpm for 1 min. After the second wash, buffer B and glucose were added to the precipitates.\nIn the presented experiments, an in vitro assessment of the possible antioxidant and neuroprotective effects of the newly synthetized compounds was performed in a model of 6-OHDA induced toxicity in rat brain synaptosomes. 6-OHDA is a neurotoxicant that structurally resembles dopamine and can be used in different in vivo and in vitro models for neurotoxicity. This model resembles the histological, biochemical, and physiological characteristics of neurodegenerative diseases such as Parkinson’s and Alzheimer’s disease. […] However, their uptake into brain synaptosomes is similar among primates and rodents and they are suitable in vitro models for PD. The main mechanism of 6-OHDA toxicity includes induction of oxidative stress. It undergoes auto-oxidation or metabolic degradation to p-quinone and produces hydrogen peroxide, superoxide, and hydroxyl radicals. The process causes lipid peroxidation, protein oxidation, and DNA oxidation and finally results in oxidative stress and mitochondrial dysfunction. Rat brain synaptosomes were pretreated with compounds 3e, 3h, 3i, 3m, melatonin, and rasagiline (10 μM); after that, the samples were subjected to 6-OHDA (150 mmol/L, 1 h). The protective effects were evaluated by measurement of synaptosomal viability (MTT-test) and GSH levels (Figure 3)."}, "[1]": {"target": "T1, human recombinant MAO-B (hMAO-B) enzyme (Homo sapiens, UniProt P27338)", "T1 construct": "purchased Invitrogen, USA", "T1 sequence (P27338 1-520)": "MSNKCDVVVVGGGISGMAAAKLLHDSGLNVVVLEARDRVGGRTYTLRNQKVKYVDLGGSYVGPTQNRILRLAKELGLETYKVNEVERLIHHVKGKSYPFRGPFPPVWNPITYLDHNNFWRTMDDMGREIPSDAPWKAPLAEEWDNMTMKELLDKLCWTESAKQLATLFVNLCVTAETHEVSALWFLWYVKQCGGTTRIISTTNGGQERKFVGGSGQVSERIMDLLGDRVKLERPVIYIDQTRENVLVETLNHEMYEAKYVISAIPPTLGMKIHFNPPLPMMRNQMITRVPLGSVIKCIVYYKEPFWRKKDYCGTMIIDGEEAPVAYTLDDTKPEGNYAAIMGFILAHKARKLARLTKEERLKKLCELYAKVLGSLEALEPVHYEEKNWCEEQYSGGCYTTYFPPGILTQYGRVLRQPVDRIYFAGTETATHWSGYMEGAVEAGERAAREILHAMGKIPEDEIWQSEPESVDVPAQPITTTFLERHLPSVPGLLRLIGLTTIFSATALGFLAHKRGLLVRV", "assay": "hMAO-B activity, Amplex UltraRed fluorometric method", "type": "biochemical", "conditions": "1 µM", "method": "The effects of the test compounds on human recombinant MAO-B (hMAO-B) enzyme were studied by the Amplex UltraRed reagent (Sigma-Aldrich Chemie GmbH) fluorometric method with small modifications. The working solutions of the compounds, reagents, hMAO-B, and reaction buffers were prepared according to the producer’s instructions. The tyramine hydrochloride was used as a substrate. The reaction mixture contained a stock solution of Amplex Red (10 mM in dimethyl sulfoxide), the reaction buffer (0.05 M sodium phosphate) at pH 7.4, and the storage solution of horseradish peroxidase (10 U/mL). There were pure MAO-B working solutions in the reaction buffer and MAO-B working solution containing hydrogen peroxide as controls. The final concentration of the test compounds in the well was 1 μM. The compounds together with hMAO-B were embedded in a 96-well plate (8 wells for each compound), and then the plate was incubated for 30 min (dark, at 37 °C). Thereafter, the reaction was initiated by 50 μL Mix Solution: Amplex®Red reagent, horseradish peroxidase, and tyramine as an enzyme substrate in the reaction buffer. The fluorescence was measured every 30 min at 0, 30, 60, 90, 120, and 150 min), in dark, while shaking the reaction mixture at constant temperature of 37 °C. The fluorimetric measurements were assessed using a Synergy 2 Microplate Reader.\nMonoamine oxidase B catalyzes dopamine metabolism and oxidation leading to the formation of reactive oxygen species and reactive quinones, which provoke dopamine neurotoxicity and neurodegeneration. In the next experiments, the compounds showing the best safety profile and the most promising neuroprotective activity (3d, 3e, 3h, 3i, 3m, 3n, 3p) were evaluated for their potential inhibitory activity on hMAOB. Selegiline and rasagiline as potent MAO-B inhibitors were used as standard compounds for comparison."}}, "note": "Entries after “also recorded” stand apart in the source; their conditions may differ.", "data": [{"smiles": "O=C(CCn1c(=S)n(CCC(=O)NN=Cc2cccc(O)c2O)c2ccccc21)NN=Cc1cccc(O)c1O", "note": "[3h, 3,3′-(2-Thioxo-1H-benzo[d]imidazole-1,3(2H)-diyl)bis(N′-(2,3-dihydroxybenzylidene)propanehydrazide)]", "values": [{"measurement": "increase of synaptosomal viability vs. 6-OHDA treatment", "setting": "rat brain synaptosomes; 10 µM pretreatment, 6-OHDA 1 h", "result": 71, "unit": "%"}, {"measurement": "inhibitory effect on hMAOB activity (in words)", "setting": "[1]", "result": "statistically significant MAO-B inhibitory effects; also recorded: most potent with an hMAO-B inhibitory activity similar to selegiline and rasagiline"}]}, {"smiles": "O=C(CCn1c(=S)n(CCC(=O)NN=Cc2ccccc2O)c2ccccc21)NN=Cc1ccccc1O", "note": "[3e, 3,3′-(2-Thioxo-1H-benzo[d]imidazole-1,3(2H)-diyl)bis(N′-(2-hydroxybenzylidene)propanehydrazide)]", "values": [{"measurement": "protective effect in 6-OHDA model (in words)", "setting": "rat brain synaptosomes", "result": "less pronounced protective effects"}, {"measurement": "inhibitory effect on hMAOB activity (in words)", "setting": "[1]", "result": "statistically significant MAO-B inhibitory effects"}]}, {"smiles": "COc1ccc(C=NNC(=O)CCn2c(=S)n(CCC(=O)NN=Cc3ccc(OC)cc3O)c3ccccc32)c(O)c1", "note": "[3m, 3,3′-(2-Thioxo-1H-benzo[d]imidazole-1,3(2H)-diyl)bis(N′-(2-hydroxy-4-methoxybenzylidene)propanehydrazide)]", "values": [{"measurement": "protective effect in 6-OHDA model (in words)", "setting": "rat brain synaptosomes", "result": "less pronounced protective effects"}, {"measurement": "inhibitory effect on hMAOB activity (in words)", "setting": "[1]", "result": "statistically significant MAO-B inhibitory effects"}]}, {"smiles": "O=C(CCn1c(=S)n(CCC(=O)NN=Cc2ccc(O)cc2O)c2ccccc21)NN=Cc1ccc(O)cc1O", "note": "[3i, 3,3′-(2-Thioxo-1H-benzo[d]imidazole-1,3(2H)-diyl)bis(N′-(2,4-dihydroxybenzylidene)propanehydrazide)]", "values": [{"measurement": "protective effect in 6-OHDA model (in words)", "setting": "rat brain synaptosomes", "result": "less pronounced protective effects"}, {"measurement": "inhibitory effect on hMAOB activity (in words)", "setting": "[1]", "result": "statistically significant MAO-B inhibitory effects"}]}]}
